Measured values as given in patent US9434724B2, “Quinuclidines for modulating alpha 7 activity” (priority 2014, dated 2016).

Legend:
Type in all cases: in vitro ADME
Human plasma stability = settings: plasma; for % Remaining @ 2 h: 5 μM
How it was run: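 Protocol 1: 1 μM compound in pH 7.4 sodium-heparin human plasma at 37° C, sampled 0–120 min. Protocol 2: 5 μM in plasma at pH 7.4–8.0, 37° C, duplicates, sampled 0–120 min. Both: LC-MS/MS percent remaining versus t0; half-life from single-phase exponential decay.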

[1] = Metabolic stability assay in rat liver microsomes (RLM); settings: 1 μM
How it was run: (§1)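 In Protocol 1, compound was 1 μM final with NADPH at 37 °C, sampled at 0–45 min. In Protocol 2, 1.5 μM compound with 0.75 mg/mL microsomes (pre-NADPH mix) in 0.1 M potassium phosphate, 1 mM EDTA, pH 7.4 was pre-incubated 10 min, then NADPH started the reaction. Both: LC-MS/MS % remaining versus time 0, half-life from single-phase exponential fit.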

[2] = Metabolic stability assay in human liver microsomes (HLM); settings: 1 μM
How it was run: as §1

Compound	% Remaining @ 2 h (Human plasma stability; human, 2 h) [%]	RLM ([1]; rat, microsomes) [mL/min/kg]	HLM ([2]; human, microsomes) [mL/min/kg]	T1/2 (Human plasma stability; human)	% Remaining @ 2 h (Human plasma stability; Protocol No. 2, 37° C.) [%]	RLM ([1]; Protocol No. 1, rat liver microsomes) [mL/min/kg]	HLM ([2]; Protocol No. 1, human liver microsomes) [mL/min/kg]
O=C(OCC12CCN(CC1)CC2)c1c[nH]c2cc(O)cc(Cl)c12 [Compound 46, quinuclidin-4-ylmethyl 4-chloro-6-hydroxy-1H-indole-3-carboxylate]	91.9	32.4827	7.385	–	–	–	–
COc1c(OCC(F)(F)F)ccc2[nH]cc(C(=O)OCC34CCN(CC3)CC4)c12 [Compound 88, quinuclidin-4-ylmethyl 4-methoxy-5-(2,2,2-trifluoroethoxy)-1H-indole-3-carboxylate]	110.47	25.96	3.31	∞	–	–	–
Cc1cc(Cl)c2c(C(=O)OCC34CCN(CC3)CC4)c[nH]c2c1.Cl [Compound 65, quinuclidin-4-ylmethyl 4-chloro-6-methyl-1H-indole-3-carboxylate hydrochloride]	–	–	–	–	72.66	286.666	2.253
